Results as given in patent US20230270877A1, “Combination Therapy” (Seagen Inc., priority 2020, published 2023).
Square brackets hold non-standard residues; d marks the D form. Peptide text beside a SMILES is read from it. * marks the point of attachment. Dolaproine = CO[C@@H]([C@@H]1CCCN1)[C@@H](C)C(=O)O; Dil = CC[C@H](C)[C@H](NC)[C@@H](CC(=O)O)OC; X1 = C[C@@H](N*)[C@@H](O)c1ccccc1; NMeV = CN[C@H](C(=O)O)C(C)C

What was measured:
CD30+CD8 T cells = experiment: Proliferation of activated CD30+CD8 T cells treated with CD30 directed vc-MMAE; type: cell-based, human; conditions: anti-CD3-CD28 beads + 10 ng/mL IL-2, 4 days; vs isotype control; FIG. 2
Method: Human primary CD8 T cells were labeled with CSFE and induced to undergo proliferation with anti-CD3-CD28 beads (1 bead per 4 T cells)+10 ng/mL IL-2 for 4 days. […] CD30+CD8 T cells were treated with either CD30 directed vc-MMAE (brentuximab vedotin; BV; SGN-35) or an isotype control. Cells were stained with LIVE/DEAD Fixable Dead Cell Stain (ThermoFisher) and live cells were counted via flow cytometry.

A20 lymphoma cells = experiment: Immunization with killed CD30-expressing A20 cells and A20 challenge (Example 24); type: in vivo; conditions: mice immunized 2 times with cells killed by the agent; compared to flash freezing; FIG. 24
Method: A20 cells expressing human CD30 were treated with CD30-Auristatin ADC (BV; SGN-35) or MMAE for 18 hrs. Alternatively, one aliquot of cells was f1ash frozen. Ficoll centrifugation of treated samples was performed to remove live cells. All samples were analyzed for apoptosis and viability by flow cytometry using annexin V/7AAD. Dying and dead cells were washed, resuspended in PBS, and intraperitoneally injected into mice. The mice were immunized 2 times, 7 days apart. Immunized mice rested for 7 additional days, and then were challenged with A20 lymphoma cells, and tumor growth or rejection was monitored over time.

Farage cells = type: in vivo; conditions: single agent, SEA-CD70 3 mg/kg or SGN-35 1 mg/kg
CD40 = CD40 (Homo sapiens, UniProt P25942); conditions: cited from earlier work
CD40, sequence (P25942 21-277): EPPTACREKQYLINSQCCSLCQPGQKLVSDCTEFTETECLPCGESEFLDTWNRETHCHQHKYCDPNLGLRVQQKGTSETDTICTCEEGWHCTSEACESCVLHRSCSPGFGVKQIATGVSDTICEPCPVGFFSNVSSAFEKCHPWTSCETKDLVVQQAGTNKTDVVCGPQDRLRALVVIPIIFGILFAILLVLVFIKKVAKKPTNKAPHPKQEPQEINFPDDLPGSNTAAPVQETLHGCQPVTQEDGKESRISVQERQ

[1] = test system: acute myeloid leukemia (AML); conditions: administered alone; cited from earlier work

Compound: SGN-35: CD30-targeting ADC containing MMAE conjugated to the monoclonal antibody cAC10 [reference compound]
- cell proliferation of primary human CD30+CD8 T cells (CD30+CD8 T cells): not significantly altered
- immune responses rejecting implanted A20 cells (A20 lymphoma cells): stronger immune responses
- day at which tumors reached an average 5 fold increase of original size (Farage cells; day post implant, untreated 28.5): 46 days
- days post treatment at which tumors reached an average 5 fold increase (Farage cells; untreated 9.5): 27 days post treatment

Compound: Dacetuzumab: fucosylated humanized S2C6, agonistic CD40 monoclonal antibody
- clinical activity (CD40; phase 1 study in NHL and phase 2 study in DLBCL): some clinical activity

Compound: CP-870,893: a humanized IgG2 agonist antibody to CD40
- activity in solid tumor indications (CD40; combined with paclitaxel or carboplatin or gemcitabine): encouraging activity

Compound: CC[C@H](C)[C@@H]([C@@H](CC(=O)N1CCC[C@H]1[C@H](OC)[C@@H](C)C(=O)N[C@H](C)[C@@H](O)c1ccccc1)OC)N(C)C(=O)[C@@H](NC(=O)[C@@H](NC)C(C)C)C(C)C [MMAE, N-methylvaline-valine-dolaisoleuine-dolaproine-norephedrine] (H-[NMeV]V[Dil][Dolaproine]-X1)
- immune responses rejecting implanted A20 cells (A20 lymphoma cells): stronger immune responses

Compound: CT-011: anti-PD-1 antibody, a humanized antibody
- response in treating acute myeloid leukemia (AML) at relapse [1]: failed to show response
